# In ChEMBL document CHEMBL1201862, “PubChem BioAssay data set” (2004):
#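 1) Cells in 96-well plates. 2) Compound, 48 h, 5 concentrations. 3) Linear interpolation between surrounding doses. 4) Unreached endpoint = highest concentration. GI50 = concentration required for 50% inhibition of growth.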 Active and inactive are the calls of the source. No stated cut-off is given here; in the data, active = GI50 up to about 1.1 µM and inactive = higher. Where a SMILES comes first, the peptide text is derived from it. [ ]: non-standard residue; d: D form. The star is where a group is joined. Chg = N[CH](C(=O)O)C1CCCCC1; Cbz = O=C(OCc1ccccc1)*; OBn = c1ccc(CO*)cc1
# Tests used:
# Experiment in all cases: DTP human tumour cell line panel, 48 h
# [1] = test system: A498
# [2] = test system: ACHN
# [3] = test system: BT-549
# [4] = test system: EKVX
# [5] = test system: HCT-15
# [6] = test system: HL-60
# [7] = test system: HOP-62
# [8] = test system: HT-29
# [9] = test system: IGROV-1
# [10] = test system: NCI-H226
# [11] = test system: OVCAR-5
# [12] = test system: OVCAR-8
# [13] = test system: PC-3
# [14] = test system: SK-MEL-28
# [15] = test system: SN12C
# [16] = test system: SNB-19
# [17] = test system: SNB-75
# [18] = test system: UO-31
# [19] = test system: SR
SMILES,GI50 [1],GI50 [2],GI50 [3],GI50 [4],GI50 [5],GI50 [6],GI50 [7],GI50 [8],GI50 [9],GI50 [10],GI50 [11],GI50 [12],GI50 [13],GI50 [14],GI50 [15],GI50 [16],GI50 [17],GI50 [18],GI50 [19]
[N-]=[N+]=NC(c1ccccc1)(c1ccccc1)c1ccccc1,17.3 µM (inactive),15.7 µM (inactive),19.7 µM (inactive),14.2 µM (inactive),18.1 µM,17.2 µM (inactive),19.5 µM (inactive),16 µM (inactive),25 µM (inactive),17.3 µM (inactive),16 µM (inactive),17.3 µM (inactive),15.2 µM (inactive),18.4 µM (inactive),16.7 µM (inactive),18.4 µM (inactive),16.9 µM (inactive),16 µM (inactive),
COc1ccc2c(c1)CCCN1CCc3ccccc3C21 (configuration not stated),55.3 µM (inactive),47.3 µM (inactive),,76.4 µM (inactive),30.5 µM,17.1 µM (inactive),37.9 µM (inactive),33.3 µM (inactive),50 µM (inactive),30.1 µM (inactive),70.3 µM (inactive),39.9 µM (inactive),41.5 µM (inactive),36.5 µM (inactive),23.3 µM (inactive),42.6 µM (inactive),16.4 µM (inactive),,20 µM (inactive)
O=c1[nH]c(NCc2cccnc2)nc2[nH]cnc12,> 100 µM (inactive),> 100 µM (inactive),> 100 µM (inactive),> 100 µM (inactive),> 100 µM,,> 100 µM (inactive),> 100 µM (inactive),> 100 µM (inactive),> 100 µM (inactive),> 100 µM (inactive),> 100 µM (inactive),> 100 µM (inactive),,> 100 µM (inactive),> 100 µM (inactive),> 100 µM (inactive),> 100 µM (inactive),
CN1COCc2cc3cc4c(cc3nc21)OCCO4,> 100 µM (inactive),> 100 µM (inactive),87.3 µM (inactive),> 100 µM (inactive),> 100 µM,,> 100 µM (inactive),> 100 µM (inactive),55 µM (inactive),> 100 µM (inactive),> 100 µM (inactive),> 100 µM (inactive),91.8 µM (inactive),,> 100 µM (inactive),> 100 µM (inactive),> 100 µM (inactive),,
CC1(C)CCC(C)(C)C1C(=O)NC(O)C(=O)O (configuration not stated),> 100 µM (inactive),> 100 µM (inactive),,> 100 µM (inactive),> 100 µM,> 100 µM (inactive),> 100 µM (inactive),,> 100 µM (inactive),> 100 µM (inactive),> 100 µM (inactive),> 100 µM (inactive),> 100 µM (inactive),> 100 µM (inactive),> 100 µM (inactive),> 100 µM (inactive),> 100 µM (inactive),> 100 µM (inactive),> 100 µM (inactive)
COc1ccc2nc3n(c2c1)CCc1cc(OC)c(OC)cc1-3,68.7 µM (inactive),81.5 µM (inactive),30 µM (inactive),42.4 µM (inactive),33.5 µM,44.6 µM (inactive),58.2 µM (inactive),26.7 µM (inactive),,54.3 µM (inactive),> 100 µM (inactive),41.6 µM (inactive),39.4 µM (inactive),78 µM (inactive),63.1 µM (inactive),99.5 µM (inactive),40.7 µM (inactive),,
Cc1cc2c3c(ccc4[nH]cc(c43)CN2c2ccc(NS(C)(=O)=O)cc2)n1,41.4 µM (inactive),70.3 µM (inactive),35.5 µM (inactive),26.8 µM (inactive),> 100 µM,28.1 µM (inactive),19.6 µM (inactive),> 100 µM (inactive),48.4 µM (inactive),28.3 µM (inactive),> 100 µM (inactive),29 µM (inactive),> 100 µM (inactive),> 100 µM (inactive),,1.83 µM (inactive),16.9 µM (inactive),12.7 µM (inactive),
CCOc1cc2c(=O)oc3c(OC)ccc4ccc(c1OC)c2c43,> 100 µM (inactive),37.4 µM (inactive),,> 100 µM (inactive),> 100 µM,> 100 µM (inactive),46.5 µM (inactive),97.5 µM (inactive),> 100 µM (inactive),60 µM (inactive),> 100 µM (inactive),25.2 µM (inactive),> 100 µM (inactive),> 100 µM (inactive),> 100 µM (inactive),59.2 µM (inactive),64.3 µM (inactive),> 100 µM (inactive),
CCC(C)CC(C)CC(C)/C=C(\C)C1=C(C)CC(C)(O)O1 (configuration not stated),> 100 µM (inactive),87.5 µM (inactive),,> 100 µM (inactive),> 100 µM,23.7 µM (inactive),,93.8 µM (inactive),> 100 µM (inactive),76.9 µM (inactive),,69.7 µM (inactive),,> 100 µM (inactive),90.4 µM (inactive),,> 100 µM (inactive),26.3 µM (inactive),
CCCCCCCCCCCCCCCCCC(=O)OCC(COC1OC(CS(=O)(=O)O)C(O)C(O)C1O)OC(=O)CCCCCCCCCCCCCCCCC (configuration not stated),> 100 µM (inactive),> 100 µM (inactive),,> 100 µM (inactive),> 100 µM,> 100 µM (inactive),> 100 µM (inactive),> 100 µM (inactive),> 100 µM (inactive),> 100 µM (inactive),> 100 µM (inactive),> 100 µM (inactive),> 100 µM (inactive),> 100 µM (inactive),> 100 µM (inactive),> 100 µM (inactive),10.4 µM (inactive),,0.222 µM (active)
CC(=O)C1C(=O)C(=O)N(c2ccc([N+](=O)[O-])cc2)C1=O (configuration not stated),,> 100 µM (inactive),> 100 µM (inactive),> 100 µM (inactive),> 100 µM,> 100 µM (inactive),> 100 µM (inactive),> 100 µM (inactive),> 100 µM (inactive),> 100 µM (inactive),> 100 µM (inactive),> 100 µM (inactive),52.7 µM (inactive),> 100 µM (inactive),> 100 µM (inactive),> 100 µM (inactive),> 100 µM (inactive),> 100 µM (inactive),
COC(=O)C(NC(=O)C(CC(=O)OCc1ccccc1)NC(=O)OCc1ccccc1)C1CCCCC1 (configuration not stated) (Cbz-Asp(OBn)-[Chg]-OMe; configuration not given here),,> 100 µM (inactive),,> 100 µM (inactive),> 100 µM,> 100 µM (inactive),> 100 µM (inactive),78.3 µM (inactive),> 100 µM (inactive),> 100 µM (inactive),> 100 µM (inactive),> 100 µM (inactive),> 100 µM (inactive),> 100 µM (inactive),> 100 µM (inactive),> 100 µM (inactive),62.8 µM (inactive),69.7 µM (inactive),59 µM (inactive)
